Results published in ChEMBL document CHEMBL1201862, “PubChem BioAssay data set” (2004).
Calls of active or inactive are those of the source.

Key:
[1] = Trypanosoma cruzi growth suppression in host cells – NIH3T3 host cells, beta-gal luminescence, confirmation (AID 2044); assay type: functional, cell-based;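 note: intracellular parasites grown in NIH/3T3 mouse fibroblasts as host cells; luminescent beta-galactosidase reporter signal from transgenic T. cruzi replicating inside host cells; inhibitors lower the luminescence signal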
[2] = MIN6 cell viability loss – mouse insulinoma, cytotoxicity control, dose response (AID 2122); assay type: functional;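 note: confirmatory high-throughput counterscreen run to flag cytotoxic compounds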
[3] = decrease of insulin promoter-GFP reporter – imaging, high-content screening, mouse beta cells (AID 1628); assay type: functional; details: MIN6
[4] = NIH3T3 cell viability loss – ATP luminescence, mouse fibroblasts, counter-screen, dose response (AID 2010); assay type: functional, cell-based;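 note: cells exposed to compound for about 90 hours before reading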
Escherichia coli = assay: microbe, parasite or virus in culture
[5] = Luminescence Cell-Based Dose Retest to Confirm Inhibitors of Cancer Stem Cells. [Related pubchem assays (depositor defined):AID2717, AID2721]; assay type: functional; details: Homo sapiens
[6] = molecular target: T1, Ubiquitin-conjugating enzyme E2 N (Homo sapiens, UniProt P61088); assay type: functional
T1 sequence (P61088 whole entry): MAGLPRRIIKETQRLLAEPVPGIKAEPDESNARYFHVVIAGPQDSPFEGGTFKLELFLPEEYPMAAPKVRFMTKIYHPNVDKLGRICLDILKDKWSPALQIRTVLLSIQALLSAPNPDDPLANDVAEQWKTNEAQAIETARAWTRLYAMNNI

[7] = molecular target: T1, Ubiquitin-conjugating enzyme E2 N; assay type: functional; remark: listed apart in the source
Bcl-2-related protein A1 = molecular target: T2, Bcl-2-related protein A1 (Mus musculus, UniProt Q07440); assay type: functional;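 note: confirmatory dose–response counterscreen on Bfl-1, used to check hits from a UBC13 polyubiquitin inhibitor campaign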
T2 sequence (Q07440 whole entry): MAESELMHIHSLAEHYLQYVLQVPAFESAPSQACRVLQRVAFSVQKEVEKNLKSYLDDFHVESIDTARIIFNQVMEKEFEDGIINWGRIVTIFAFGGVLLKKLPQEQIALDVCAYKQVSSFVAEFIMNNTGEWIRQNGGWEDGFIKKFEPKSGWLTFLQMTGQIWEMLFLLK

[8] = loss of viability in HepG2 cells – cell-based, CellTiter-Glo, cherry-picked, cytotoxicity control for Shn3 inhibitor project, dose response (AID 624134); assay type: functional
[9] = reduction of Shn3 3'UTR-driven luciferase in osteoblasts – cell-based, Clone20 osteoblasts, firefly luciferase, cherry-picked, dose response (AID 624132); assay type: functional;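 note: firefly luciferase luminescence from reporter carrying the Shn3 3'UTR in osteoblasts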
[10] = molecular target: T3, Microphthalmia-associated transcription factor (Homo sapiens, UniProt O75030); assay: reducers of TRPM1 reporter luminescence, concentration series – cell-based, SK-MEL-5, cherry-picked, set 3, MITF inhibitor project, dose response (AID 493073); assay type: functional;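 note: SK-MEL-5 melanoma cells with luciferase driven by the MITF target TRPM1 promoter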
T3 sequence (O75030 whole entry): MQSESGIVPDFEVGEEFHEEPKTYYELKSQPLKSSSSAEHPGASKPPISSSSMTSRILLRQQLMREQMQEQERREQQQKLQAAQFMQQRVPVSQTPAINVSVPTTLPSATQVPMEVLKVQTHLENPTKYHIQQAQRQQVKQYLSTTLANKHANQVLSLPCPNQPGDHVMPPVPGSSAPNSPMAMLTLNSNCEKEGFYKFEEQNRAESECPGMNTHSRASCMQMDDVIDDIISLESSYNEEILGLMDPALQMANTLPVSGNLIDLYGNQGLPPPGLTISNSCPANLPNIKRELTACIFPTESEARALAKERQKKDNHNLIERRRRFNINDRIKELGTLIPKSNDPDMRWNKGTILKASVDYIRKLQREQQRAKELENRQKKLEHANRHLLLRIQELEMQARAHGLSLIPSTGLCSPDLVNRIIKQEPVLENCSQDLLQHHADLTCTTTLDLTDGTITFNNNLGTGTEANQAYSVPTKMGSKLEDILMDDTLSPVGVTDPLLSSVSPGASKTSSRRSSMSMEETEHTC

[11] = non-specific 3'UTR reporter inhibition in Clone20-Shn3RL – cell-based, Renilla luciferase, cherry-picked, counter-screen for Shn3 inhibitor project, dose response (AID 624133); assay type: functional
[12] = molecular target: Voltage-gated inwardly rectifying potassium channel KCNH2 (Homo sapiens, UniProt Q12809); details: Potency;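 note: confirmatory quantitative high-throughput screen measuring inhibition of hERG channel activity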
Cysteine protease ATG4B = molecular target: T4, Cysteine protease ATG4B (Homo sapiens, UniProt Q9Y4P1); assay type: functional;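 note: Fluorescence-based dose-response confirmation assay measuring inhibition of ATG4B activity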
T4 sequence (Q9Y4P1 whole entry): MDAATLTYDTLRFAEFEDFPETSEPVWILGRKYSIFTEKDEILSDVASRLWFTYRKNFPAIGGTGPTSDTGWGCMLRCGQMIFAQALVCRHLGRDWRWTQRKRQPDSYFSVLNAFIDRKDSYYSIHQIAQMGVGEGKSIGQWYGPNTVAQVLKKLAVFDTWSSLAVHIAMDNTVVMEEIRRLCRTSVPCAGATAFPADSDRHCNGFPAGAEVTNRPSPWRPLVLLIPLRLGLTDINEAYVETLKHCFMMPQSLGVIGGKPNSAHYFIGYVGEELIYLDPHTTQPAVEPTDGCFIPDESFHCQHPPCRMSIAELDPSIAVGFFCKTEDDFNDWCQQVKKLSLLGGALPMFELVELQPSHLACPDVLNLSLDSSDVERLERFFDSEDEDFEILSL

Phospholipase A2 = Phospholipase A2 (Homo sapiens, UniProt P04054); assay type: functional;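 note: confirmatory dose-response counterscreen on phospholipase A2, testing hits that came from an ultra-high-throughput screen for ATG4B inhibitors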
Sequence of Phospholipase A2 (P04054 whole entry): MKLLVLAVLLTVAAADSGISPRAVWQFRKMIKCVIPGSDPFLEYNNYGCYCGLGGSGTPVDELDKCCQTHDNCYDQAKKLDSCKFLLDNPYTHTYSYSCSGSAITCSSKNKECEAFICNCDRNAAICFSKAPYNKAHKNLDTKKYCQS

Sequence of Voltage-gated inwardly rectifying potassium channel KCNH2 (Q12809 whole entry): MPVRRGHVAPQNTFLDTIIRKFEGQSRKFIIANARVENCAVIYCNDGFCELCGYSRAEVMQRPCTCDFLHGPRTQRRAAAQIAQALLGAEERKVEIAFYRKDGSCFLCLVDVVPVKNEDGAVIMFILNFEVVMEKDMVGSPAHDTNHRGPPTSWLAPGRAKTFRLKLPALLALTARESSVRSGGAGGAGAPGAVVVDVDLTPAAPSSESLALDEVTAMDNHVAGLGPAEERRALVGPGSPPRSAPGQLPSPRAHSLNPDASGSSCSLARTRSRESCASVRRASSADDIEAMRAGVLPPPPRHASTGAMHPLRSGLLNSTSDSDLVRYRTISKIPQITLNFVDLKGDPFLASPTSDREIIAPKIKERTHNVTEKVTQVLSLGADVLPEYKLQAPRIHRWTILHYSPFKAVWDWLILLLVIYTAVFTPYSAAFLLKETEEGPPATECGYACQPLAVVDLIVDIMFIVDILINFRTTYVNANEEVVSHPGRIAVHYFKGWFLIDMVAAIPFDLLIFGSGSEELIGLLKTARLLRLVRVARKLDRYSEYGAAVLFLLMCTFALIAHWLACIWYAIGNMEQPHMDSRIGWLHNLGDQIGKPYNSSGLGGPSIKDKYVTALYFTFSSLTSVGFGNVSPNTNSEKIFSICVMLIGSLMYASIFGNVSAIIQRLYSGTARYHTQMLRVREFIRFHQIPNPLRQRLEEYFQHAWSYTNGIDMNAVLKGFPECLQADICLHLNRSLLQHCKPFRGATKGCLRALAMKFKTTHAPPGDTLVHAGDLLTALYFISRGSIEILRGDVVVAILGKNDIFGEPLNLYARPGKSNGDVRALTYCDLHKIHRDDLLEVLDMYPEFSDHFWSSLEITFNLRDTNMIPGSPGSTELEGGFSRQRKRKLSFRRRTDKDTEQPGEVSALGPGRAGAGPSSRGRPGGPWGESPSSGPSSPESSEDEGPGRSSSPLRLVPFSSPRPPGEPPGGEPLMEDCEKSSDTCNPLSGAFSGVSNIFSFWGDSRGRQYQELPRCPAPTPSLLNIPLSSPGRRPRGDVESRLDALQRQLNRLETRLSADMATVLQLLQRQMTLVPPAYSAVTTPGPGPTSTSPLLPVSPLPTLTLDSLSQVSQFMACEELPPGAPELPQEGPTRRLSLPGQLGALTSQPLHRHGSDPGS

CC(C)Cn1cnc2c(c(-c3ccccc3)c(-c3ccccc3)n2Cc2ccco2)c1=N
EC50 [1]: 0.879 µM (active) | IC50 [2]: 2.88 µM (active) | IC50 [3]: 1.69 µM (active) | EC50 [4]: 8.39 µM (active)

Cc1nc(NC(=O)c2ccco2)sc1-c1csc(Nc2ccc(Cl)cc2)n1
AC50 (Escherichia coli): 39.7 µM (active) | AC50 [5]: 2.03 µM (active)

CS(=O)(=O)N1CCN(C(=O)c2cccnc2)CC1
AC50 (Escherichia coli): > 150 µM (inactive)

CC1(C)Cc2c(sc(NC(=O)C(=O)NCCCN3CCOCC3)c2C(N)=O)CO1
IC50 [6]: 2.14 µM (active) | IC50 [7]: 7.92 µM (active) | IC50 (Bcl-2-related protein A1): > 20 µM (inactive)

COc1ccc(C(=O)C(CN2CCOCC2)c2ccccc2)cc1 (configuration not stated)
AC50 [8]: > 70 µM (inactive) | IC50 [2]: 4.42 µM (active) | AC50 [9]: 5.59 µM (active) | AC50 [10]: 7.29 µM (active) | AC50 [11]: 11.2 µM (active) | IC50 [3]: 4.99 µM (active)

O=C1c2cccc3cccc(c23)C(=O)N1CCN1CCN(CC(O)COCc2ccc(Cl)cc2)CC1 (configuration not stated)
IC50 [6]: 2.31 µM (active) | IC50 [7]: 2.89 µM (active) | IC50 (Bcl-2-related protein A1): > 20 µM (inactive)

Oc1cccc(Cl)c1Cl
AC50 [12]: 5.01 µM (inconclusive)

Cc1sc2nc(C3CCCCC3)nc(SCC(=O)N3CC(=O)Nc4ccccc43)c2c1C
IC50 (Cysteine protease ATG4B): 0.316 µM (active) | IC50 (Phospholipase A2): 0.182 µM (active)

Cc1ccc(NC(=O)CN(C)CC(=O)Nc2cccc(F)c2)cc1[N+](=O)[O-]
AC50 [8]: > 70 µM (inactive) | IC50 [2]: 0.487 µM (active) | AC50 [9]: 0.57 µM (active) | AC50 [11]: 10.1 µM (active) | IC50 [3]: 0.765 µM (active)
